According to ChEMBL document CHEMBL5727779, “Compounds for inhibiting AGC kinase and pharmaceutical compositions comprising the same” (2020):
pIC50: −log10 of the molar value.

Legend:
[1] = target: Rho-associated protein kinase 1 (Homo sapiens, UniProt Q13464); assay: (§1) ELISA Assay: ROCK Substrate Coated Plate (Part No 241601): One strip well 96-well plate pre-coated with recombinant MYPT1.Buffer: 25 mM Tris, pH 7.5, 10 mM MgCl2, 5 mM Glycerol-2-Phosphate, 0.1 mM Na3VO4; 1% DMSO; 2.5 mM DTT; (Enzyme: ROCK active-II) (Cell Biolabs, Catalog #STA-406, Part No. 241505) 0.1 ng/μl.ATP Solution (Part No. 241604): 100 mM ATP. Final concentration of ATP in reaction mixture: 250 μM.Anti-phospho-MYPT1 (Thr696) (Part No. 241603).Secondary Antibody, HRP Conjugate (Part No. 231003).Biotinylated substrate, diluted to 0.25 μM with buffer described above (without ATP).Steps:1. Purified kinase or cell lysate sample can be used directly in the kinase assay or further diluted with 1× Kinase Buffer. Each sample should be assayed in duplicate.2. Add 90 μL of the diluted active ROCK-II positive control or unknown ROCK samples to the wells of the substrate plate.3. Initiate the kinase reaction by adding 10 μL of the 10× Kinase Reaction Buffer containing DTT and ATP. Mix well.4. Cover with a plate cover and incubate the wells at 30° C. for 30-60 minutes with gentle agitation.5. Stop kinase reaction by flicking out the content or by adding 50 μL of 0.5M EDTA, pH 8.0, to each well.6. Remove the plate cover and empty wells. Wash microwell strips 3 times with 250 μL 1× Wash Buffer per well with thorough aspiration between each wash. After the last wash, empty wells and tap microwell strips on absorbent pad or paper towel to remove excess 1× Wash Buffer.7. Add 100 μL of the diluted anti-phospho-MYPT1 (Thr696) antibody to each well.8. Cover with the plate cover and incubate at room temperature for 1 hour on an orbital shaker.9. Remove the plate cover and empty wells. Wash the strip wells 3 times according to step 6 above.10. Add 100 μL of the diluted HRP-conjugated secondary antibody to each well.11. Cover with the plate cover and incubate at room temperature for 1 hour on an orbital shaker.12. Remove the plate cover and empty wells. Wash microwell strips 3 times according to step 6 above. Proceed immediately to the next step.13. Warm Substrate Solution to room temperature. Add 100 μL of Substrate Solution to each well, including the blank wells. Incubate at room temperature for 5-20 minutes on an orbital shaker.14. Stop the enzyme reaction by adding 100 μL of Stop Solution into each well, including the blank wells. Results should be read immediately (color will fade over time).15. Read absorbance of each microwell on a spectrophotometer using 450 nm as the primary wave length.
[2] = target: Rho-associated protein kinase 2 (Homo sapiens, UniProt O75116); assay: as §1
Sequence of Rho-associated protein kinase 2 (O75116 whole entry): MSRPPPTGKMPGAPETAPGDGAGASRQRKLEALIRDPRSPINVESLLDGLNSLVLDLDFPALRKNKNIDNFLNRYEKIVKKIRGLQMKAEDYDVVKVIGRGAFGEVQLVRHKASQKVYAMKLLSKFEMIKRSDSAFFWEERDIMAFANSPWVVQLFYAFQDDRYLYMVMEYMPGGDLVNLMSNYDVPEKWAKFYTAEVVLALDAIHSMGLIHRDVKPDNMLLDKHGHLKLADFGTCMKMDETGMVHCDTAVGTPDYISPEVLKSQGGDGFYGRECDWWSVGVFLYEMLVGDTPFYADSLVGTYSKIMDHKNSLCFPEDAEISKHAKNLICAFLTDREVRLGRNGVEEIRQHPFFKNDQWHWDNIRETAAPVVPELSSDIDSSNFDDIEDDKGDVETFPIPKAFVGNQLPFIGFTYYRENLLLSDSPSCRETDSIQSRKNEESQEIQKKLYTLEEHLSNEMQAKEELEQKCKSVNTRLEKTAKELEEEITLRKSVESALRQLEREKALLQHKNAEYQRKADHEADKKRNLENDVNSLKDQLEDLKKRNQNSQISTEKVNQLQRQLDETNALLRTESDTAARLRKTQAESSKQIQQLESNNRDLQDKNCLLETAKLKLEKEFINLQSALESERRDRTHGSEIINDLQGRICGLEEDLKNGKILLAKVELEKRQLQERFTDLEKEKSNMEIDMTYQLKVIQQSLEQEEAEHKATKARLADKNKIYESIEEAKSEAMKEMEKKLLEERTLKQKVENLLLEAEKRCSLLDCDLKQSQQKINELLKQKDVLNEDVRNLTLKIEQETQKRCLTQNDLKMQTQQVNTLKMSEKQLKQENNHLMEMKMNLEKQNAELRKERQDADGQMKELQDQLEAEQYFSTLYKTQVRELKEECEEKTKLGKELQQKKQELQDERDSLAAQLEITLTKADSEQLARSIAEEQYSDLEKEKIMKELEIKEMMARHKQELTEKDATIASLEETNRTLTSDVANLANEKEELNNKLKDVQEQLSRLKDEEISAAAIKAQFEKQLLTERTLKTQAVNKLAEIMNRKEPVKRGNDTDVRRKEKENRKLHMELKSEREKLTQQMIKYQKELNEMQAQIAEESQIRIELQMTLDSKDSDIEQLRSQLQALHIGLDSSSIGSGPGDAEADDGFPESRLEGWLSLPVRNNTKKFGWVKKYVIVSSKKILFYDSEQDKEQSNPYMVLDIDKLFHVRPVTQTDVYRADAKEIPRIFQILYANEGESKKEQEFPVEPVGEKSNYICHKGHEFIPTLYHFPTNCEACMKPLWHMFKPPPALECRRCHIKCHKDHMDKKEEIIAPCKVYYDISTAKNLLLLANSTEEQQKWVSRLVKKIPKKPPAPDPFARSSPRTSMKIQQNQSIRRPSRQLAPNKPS

Sequence of Rho-associated protein kinase 1 (Q13464 whole entry): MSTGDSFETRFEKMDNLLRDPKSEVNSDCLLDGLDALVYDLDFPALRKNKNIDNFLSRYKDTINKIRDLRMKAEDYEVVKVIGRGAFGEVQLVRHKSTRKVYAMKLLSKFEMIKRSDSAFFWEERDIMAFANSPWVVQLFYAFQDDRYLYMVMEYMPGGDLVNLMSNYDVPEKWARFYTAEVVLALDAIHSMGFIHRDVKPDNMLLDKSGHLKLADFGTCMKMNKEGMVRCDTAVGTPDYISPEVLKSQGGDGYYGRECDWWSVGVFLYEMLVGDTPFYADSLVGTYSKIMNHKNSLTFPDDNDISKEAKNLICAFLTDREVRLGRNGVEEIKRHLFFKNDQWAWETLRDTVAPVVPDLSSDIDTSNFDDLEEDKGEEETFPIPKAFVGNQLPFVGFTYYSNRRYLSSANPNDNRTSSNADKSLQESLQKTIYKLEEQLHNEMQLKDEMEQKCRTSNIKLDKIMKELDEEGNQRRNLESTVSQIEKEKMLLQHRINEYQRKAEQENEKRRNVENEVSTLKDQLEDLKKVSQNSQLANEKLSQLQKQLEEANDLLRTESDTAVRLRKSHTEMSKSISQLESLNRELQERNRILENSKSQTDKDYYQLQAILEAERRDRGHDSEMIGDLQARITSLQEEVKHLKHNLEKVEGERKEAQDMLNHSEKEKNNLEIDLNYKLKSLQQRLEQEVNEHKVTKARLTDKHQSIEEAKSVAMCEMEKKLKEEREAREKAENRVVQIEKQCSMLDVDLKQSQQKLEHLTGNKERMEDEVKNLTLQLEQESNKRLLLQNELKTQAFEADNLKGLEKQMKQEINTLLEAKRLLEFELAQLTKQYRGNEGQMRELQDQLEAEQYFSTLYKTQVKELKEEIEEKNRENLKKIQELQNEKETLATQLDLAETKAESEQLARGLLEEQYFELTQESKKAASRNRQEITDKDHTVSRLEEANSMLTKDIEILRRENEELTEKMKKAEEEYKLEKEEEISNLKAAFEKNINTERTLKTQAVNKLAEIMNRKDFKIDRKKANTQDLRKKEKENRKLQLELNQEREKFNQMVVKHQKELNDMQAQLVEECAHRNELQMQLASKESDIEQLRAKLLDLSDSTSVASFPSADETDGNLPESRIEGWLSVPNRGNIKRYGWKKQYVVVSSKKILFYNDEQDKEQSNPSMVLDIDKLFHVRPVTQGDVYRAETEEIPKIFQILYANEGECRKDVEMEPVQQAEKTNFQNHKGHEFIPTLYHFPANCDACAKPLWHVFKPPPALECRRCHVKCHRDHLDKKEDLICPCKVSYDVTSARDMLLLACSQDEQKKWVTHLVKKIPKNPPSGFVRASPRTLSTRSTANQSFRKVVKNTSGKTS

| pIC50 [1] | pIC50 [2] | SMILES |
| --- | --- | --- |
| < 6.00 | – | NCCN(Cc1ccc(F)cc1)C(=O)Nc1cccc2cnccc12 |
| – | < 6.00 | CN(C)CCN(Cc1ccccc1)C(=O)Nc1ccc2cnccc2c1 |
| – | < 6.00 | COC(=O)c1ccc(CN(CCO)C(=O)Nc2ccc3cnccc3c2)cc1 |
| – | < 6.00 | CN(C)CCN(Cc1ccc(Oc2ccc(C#N)cc2)cc1)C(=O)Nc1ccc2cnccc2c1 |
